Test results from patent publication US20050208496A1, “Methods of testing for bronchial asthma or chronic obstructive pulmonary disease” (Genox Research, Inc., priority 2002, published 2005).

Tested on: mouse counterpart genes
Assay: Mouse GeneChip (MG-U74A to MG-U74C) analysis of lung and trachea of the OVA antigen-exposed bronchial hypersensitivity model, S-Sal group versus S-OVA group
Format: in vivo
Conditions: S-Sal vs S-OVA group

Substance: ovalbumin [OVA antigen, ovalbumin antigen used for sensitization and inhalation to induce bronchial hypersensitivity in mice]
- Fold Change, myxovirus (influenza virus) resistance 1 (mouse Probe ID 98417_at) (1st, P/A: A): 1.1
- Fold Change, myxovirus (influenza virus) resistance 2 (mouse Probe ID 102699_at) (1st, P/A: A): 1.2
- Fold Change, myxovirus (influenza virus) resistance 1 (mouse Probe ID 98417_at) (2nd, P/A: A): 2.2
- Fold Change, myxovirus (influenza virus) resistance 2 (mouse Probe ID 102699_at) (2nd, P/A: P): 0.909
- Fold Change, myxovirus (influenza virus) resistance 1 (mouse Probe ID 98417_at) (3rd, P/A: A): 3
- Fold Change, myxovirus (influenza virus) resistance 2 (mouse Probe ID 102699_at) (3rd, P/A: A): 1.3
